This is an account of results in US12612622B2, “Targeted mutagenesis using base editors” (Qi Biodesign Biotechnology Company Limited, priority 2018, dated 2026).

For the series, the system named is OsACCase gene. The experiment in a line: Base editing (pZRH-PBE + individual sgRNAs) of OsACCase functional domain in transgenic M0 rice plants. It is filed as in vivo. Particulars: for Frequency of indel (%) / Frequency of substitution (%) / No. of WT / No. of indel / No. of substitution: transgenic M0 plants; for No. of WT / No. of indel / No. of substitution: per sgRNA target. The source says:
For individual cloning, the following method is used. APOBEC1, partial nCas9 and UGI sequences (SEQ ID NO: 129) without BsaI were synthesized commercially (GenScript, Nanjing, China) and cloned into the pUC57 (SEQ ID NO: 130) as intermediate vector. […] The full length APOBEC1-nCas9-UGI was excised using XmaJI and SacI, then was subcloned into pHUE411 that had been digested using the same two enzymes. The resultant vector pZRH-PBE (SEQ ID NO: 133) was used to construct sgRNA expression plasmids using restriction enzyme site BsaI.

Setting [1] is: edited allele with the substitution of the same table line.

For “R27: sgRNA in pZRH-PBE; OsACCase target site GAACTCGTGTGATCCTCGAGCGG (SEQ ID NO: 90) (chemistry not fully specified; the letters are possibly those of the target site)”, the “Frequency of indel (%)” value amounted to 0.0%, the “Frequency of substitution (%)” value came to 15.4%, the “No. of WT” value stood at 11 and the No. of indel is given as 0. Besides, the No. of substitution is given as 2. Under setting [1], the No. of alleles stood at 3. Moreover, for the setting “unedited target site sequence”, the No. of alleles is recorded as 1.
For “R35: sgRNA in pZRH-PBE; OsACCase target site CCAAGGGAAATGGTTAGGTGCTA (SEQ ID NO: 113) (guide CCAAGGGAAATGGTTAGGTGGTA; sgRNA expressed from vector pZRH-PBE, further chemistry not given here; the letters are possibly those of the target site)”, the “Frequency of indel (%)” value came to 0.0%, the “Frequency of substitution (%)” value worked out at 12.5%, the “No. of WT” value came to 7 and the No. of indel stood at 0. Besides, the No. of substitution is recorded as 1. For the same substance, under setting [1], the No. of alleles is reported as 2. Besides, the No. of alleles (unedited target site sequence) was determined as 0.
Turning to “R19: sgRNA in pZRH-PBE; OsACCase target site TGCTTATTCTAGGGCATATAAGG (SEQ ID NO: 71) (expressed or natural sequence; target site or template, no part of the molecule)”, the “Frequency of indel (%)” value was 0.0%, the “Frequency of substitution (%)” value was 6.9%, the “No. of WT” value came to 27 and the No. of indel was 0. Also, the No. of substitution stood at 2. In addition, the No. of alleles under setting [1] is on record as 1. Further, the No. of alleles (unedited target site sequence) was found to be 1.
As for “R21: sgRNA in pZRH-PBE; OsACCase target site AGCTCCCACATGCAGTTGGGTGG (SEQ ID NO: 76) (expressed or natural sequence; target site or template, no part of the molecule)”, the “Frequency of indel (%)” value turned out to be 9.5%, the “Frequency of substitution (%)” value was found to be 23.8%, the “No. of WT” value worked out at 14 and the No. of indel is listed as 2. The No. of substitution stood at 5. The No. of alleles (edited allele with the substitution of the same table line, edited allele (SEQ ID NO: 77)) amounted to 2. The No. of alleles (edited allele with the substitution of the same table line, edited allele (SEQ ID NO: 78)) stood at 4. Further, where the note is “unedited target site sequence”, the No. of alleles is recorded as 4.
On to “R37: sgRNA in pZRH-PBE; OsACCase target site CCTGAGAACTCGTGTGATCCTCG (SEQ ID NO: 119) (expressed or natural sequence; target site or template, no part of the molecule)”, for which the “Frequency of indel (%)” value amounted to 45.5%, the “Frequency of substitution (%)” value came out at 18.2%, the “No. of WT” value is given as 4 and the No. of indel was found to be 5. Also, the No. of substitution is reported as 2. Besides, the No. of alleles (edited allele with the substitution of the same table line, edited allele (SEQ ID NO: 120)) was 1. Further, the No. of alleles (edited allele with the substitution of the same table line, edited allele (SEQ ID NO: 121)) is 2. In addition, the No. of alleles (unedited target site sequence) is 1.
For “R5: sgRNA in pZRH-PBE; OsACCase target site CCACATGCAGTTGGGTGGTCCCA (SEQ ID NO: 15) (expressed or natural sequence; target site or template, no part of the molecule)”, the “Frequency of indel (%)” value turned out to be 0.0%, the “Frequency of substitution (%)” value was 65.4%, the “No. of WT” value is on record as 18 and the No. of indel is given as 0. Further, the No. of substitution was 34. The No. of alleles (unedited target site sequence) is 12.
With “R39: sgRNA in pZRH-PBE; OsACCase target site CCGTTGGACCCACCGGACAGACC (SEQ ID NO: 125) (expressed or natural sequence; target site or template, no part of the molecule)”, the “Frequency of indel (%)” value is 50.0%, the “Frequency of substitution (%)” value was 25.0%, the “No. of WT” value was determined as 1 and the No. of indel amounted to 2. For the same substance, the No. of substitution is recorded as 1. The No. of alleles under setting [1] is on record as 1. The No. of alleles (unedited target site sequence) worked out at 1.
On to “R7: sgRNA in pZRH-PBE; OsACCase target site CCCTGCTGACCCTGGTCAGCTTG (SEQ ID NO: 27) (expressed or natural sequence; target site or template, no part of the molecule)”, for which the “Frequency of indel (%)” value came to 5.9%, the “Frequency of substitution (%)” value worked out at 58.8%, the “No. of WT” value amounted to 6 and the No. of indel worked out at 1. Further, the No. of substitution is 10. For the same substance, under setting [1], the No. of alleles is on record as 1. Under “unedited target site sequence”, the No. of alleles worked out at 4.
Take “R2: sgRNA in pZRH-PBE; OsACCase target site CCGGTGCATACAGCGTCTTGACC (SEQ ID NO: 8) (expressed or natural sequence; target site or template, no part of the molecule)”: the “Frequency of indel (%)” value was 0%, the “Frequency of substitution (%)” value was 80%, the “No. of WT” value stood at 5 and the No. of indel turned out to be 0. In addition, the No. of substitution came out at 20. For the setting “unedited target site sequence”, the No. of alleles was 6.
On to “R6: sgRNA in pZRH-PBE; OsACCase target site CCATCTTACTGTTTCAGATGACC (SEQ ID NO: 22) (expressed or natural sequence; target site or template, no part of the molecule)”, for which the “Frequency of indel (%)” value worked out at 14.3%, the “Frequency of substitution (%)” value was determined as 19%, the “No. of WT” value amounted to 14 and the No. of indel is on record as 3. Moreover, the No. of substitution turned out to be 4. Under “unedited target site sequence”, the No. of alleles was determined as 2.
“R25: sgRNA in pZRH-PBE; OsACCase target site ACTTCCAGTAACAACACCGTTGG (SEQ ID NO: 85) (expressed or natural sequence; the letters are possibly those of the target site)”: the “Frequency of indel (%)” value worked out at 0.0%, the “Frequency of substitution (%)” value stood at 40.0%, the “No. of WT” value was 3 and the No. of indel is on record as 0. Besides, the No. of substitution came out at 2. Besides, the No. of alleles (edited allele with the substitution of the same table line, edited allele (SEQ ID NO: 86)) is listed as 2. Moreover, the No. of alleles (edited allele with the substitution of the same table line, edited allele (SEQ ID NO: 87)) was found to be 1. For the same substance, the No. of alleles (unedited target site sequence) was found to be 1.
On to “R18: sgRNA in pZRH-PBE; OsACCase target site CCGCAAGGGTTAATTGAGATCAA (SEQ ID NO: 68) (expressed or natural sequence; target site or template, no part of the molecule)”, for which the “Frequency of indel (%)” value was 13.0%, the “Frequency of substitution (%)” value stood at 60.9%, the “No. of WT” value is recorded as 6 and the No. of indel was found to be 3. Also, the No. of substitution worked out at 14. For the same substance, under “unedited target site sequence”, the No. of alleles worked out at 7.
“R17: sgRNA in pZRH-PBE; OsACCase target site GGAGCTTATCTTGCTCGACTTGG (SEQ ID NO: 64) (expressed or natural sequence; target site or template, no part of the molecule)”: the “Frequency of indel (%)” value is on record as 4.8%, the “Frequency of substitution (%)” value is 42.9%, the “No. of WT” value came to 22 and the No. of indel worked out at 2. Moreover, the No. of substitution worked out at 18. Moreover, the No. of alleles (unedited target site sequence) is 16.
Consider “R32: sgRNA in pZRH-PBE; OsACCase target site CCCAGACCGCATTGAGTGCTATG (SEQ ID NO: 104) (expressed or natural sequence; target site or template, no part of the molecule)”, for which the “Frequency of indel (%)” value worked out at 10.5%, the “Frequency of substitution (%)” value is listed as 21.1%, the “No. of WT” value was 13 and the No. of indel was 2. Further, the No. of substitution stood at 4. In addition, under setting [1], the No. of alleles is reported as 1. Also, under “unedited target site sequence”, the No. of alleles is reported as 2.
In the case of “R4: sgRNA in pZRH-PBE; OsACCase target site TCTGCACTGAACAAGCTTCTTGG (SEQ ID NO: 11) (expressed or natural sequence; target site or template, no part of the molecule)”, the “Frequency of indel (%)” value is 3.1%, the “Frequency of substitution (%)” value came out at 31.3%, the “No. of WT” value was determined as 24 and the No. of indel was found to be 2. Also, the No. of substitution was found to be 6. Besides, the No. of alleles (unedited target site sequence) came out at 6.
With “R30: sgRNA in pZRH-PBE; OsACCase target site ATGGCTGCAGAGCTACGAGGAGG (SEQ ID NO: 99) (expressed or natural sequence; target site or template, no part of the molecule)”, the “Frequency of indel (%)” value was 12.5%, the “Frequency of substitution (%)” value is given as 56.3%, the “No. of WT” value was 5 and the No. of indel is recorded as 2. Moreover, the No. of substitution worked out at 9. The No. of alleles (unedited target site sequence) was found to be 5.
